From patent US20150328292A1, “CASPASE POLYPEPTIDES HAVING MODIFIED ACTIVITY AND USES THEREOF” (BELLICUM PHARMACEUTICALS, INC., priority 2014, published 2015)
Values joined by “and” are separate entries in the source; they are usually repeats but may differ in a detail not shown here. Equal entries are not always repeated.

Columns and labels:
[1] = test system: iCasp9M-transduced EBV-CTLs; assay: Loss of GFP-expressing iCasp9M-transduced EBV-CTLs after CID (flow cytometry); assay type: cell-based, human
[2] = test system: iCasp9M.IRES.GFPhigh-transduced CTLs; assay: SCID mouse-human xenograft model, elimination of transduced CTLs by CID; assay type: in vivo; details: single dose of CID (50 μg AP20187 i.p.), vs carrier
Experimental: Non-obese diabetic severe combined immunodeficient (NOD/SCID) mice, 6 to 8 weeks of age, were irradiated (250 rad) and injected subcutaneously in the right flank with 10×10^6 to 15×10^6 LCLs resuspended in Matrigel (BD Bioscience). Two weeks later mice bearing tumors that were approximately 0.5 cm in diameter were injected into the tail vein with a 1:1 mixture of nontransduced and iCasp9.I.GFPhigh-transduced EBV CTLs (total 15×10^6). At 4 to 6 hours prior and 3 days after CTL infusion, mice were injected intraperitoneally with recombinant hIL-2 (2000 U; Proleukin; Chiron). On day 4, the mice were randomly segregated in 2 groups: 1 group received CID (50 μg AP20187, intraperitoneally) and 1 group received carrier only (16.7% propanediol, 22.5% PEG400, and 1.25% Tween 80, intraperitoneally). […] By FACS analysis, the number of GFP+ cells within the gated CD3^+ population was evaluated. […]
The function of iCasp9M in vivo is graphically illustrated in FIG. 7. […] On day 3 after CTL administration, mice received either CID (50 μg AP20187; (black diamonds, n=6) or carrier only (black squares, n=5) and on day 6 the presence of human CD3+/GFP+ T cells in the tumors was analyzed. Human CD3+ T cells isolated from the tumors of a control group of mice that received only nontransduced CTLs (15×10^6 CTLs; n=4) were used as a negative control for the analysis of CD3+/GFP+ T cells within the tumors.

[3] = test system: gene-modified allodepleted cells; assay: Induction of apoptosis with AP20187 in gene-modified allodepleted cells (annexin V/7-AAD); assay type: cell-based, human
Experimental: Suicide gene functionality was assessed by adding a small molecule synthetic homodimerizer, AP20187 (Ariad Pharmaceuticals; Cambridge, Mass.), at 10 nM final concentration the day following CD19 immunomagnetic selection. Cells were stained with annexin V and 7-aminoactinomycin (7-AAD)(BD Pharmingen) at 24 hours and analyzed by flow cytometry. Cells negative for both annexin V and 7-AAD were considered viable, cells that were annexin V positive were apoptotic, and cells that were both annexin V and 7-AAD positive were necrotic. The percentage killing induced by dimerization was corrected for baseline viability as follows: Percentage killing=100%−(% Viability in AP20187-treated cells÷ % Viability in non-treated cells).
Cells were maintained in T cell medium containing 50 U/ml IL-2 until 22 days after transduction. A portion of cells was reactivated on 24-well plates coated with […] OKT3 and 1 μg/ml anti-CD28 (Clone CD28.2, BD Pharmingen, San Jose, Calif.) for 48 to 72 hours. CD19 expression and suicide gene function in both reactivated and non-reactivated cells were measured on day 24 or 25 post transduction.
In some experiments, cells also were cultured for 3 weeks post transduction and stimulated with 30G-irradiated allogeneic PBMC at a responder:stimulator ratio of 1:1. After 4 days of co-culture, a portion of cells was treated with 10 nM AP20187. Killing was measured by annexin V/7-AAD staining at 24 hours, and the effect of dimerizer on bystander virus-specific T cells was assessed by pentamer analysis on AP20187-treated and untreated cells.

[4] = test system: iCasp9-ΔCD19-transduced MSCs; assay: In vivo killing of iCasp9-transduced MSCs in SCID mice (luminescence, qPCR); set-up: species or system mouse
[5] = test system: F-Casp9M.I.GFPhigh-transduced T cells; assay: annexin-V/7-AAD staining of CID-treated transduced CTLs; assay type: cell-based, human; details: GFPhigh-selected, overnight 10 nM CID
Experimental: CID (AP20187; ARIAD Pharmaceuticals) at indicated concentrations was added to transfected 293T cells or transduced CTLs. Adherent and nonadherent cells were harvested and washed with annexin binding buffer (BD Pharmingen, San Jose, Calif.). Cells were stained with annexin-V and 7-amino-actinomycin D (7-AAD) for 15 minutes according to the manufacturer's instructions (BD Pharmingen). Within 1 hour after staining, cells were analyzed by flow cytometry using CellQuest software (Becton Dickinson).

iCasp9-transduced MSCs = assay: Apoptosis of undifferentiated iCasp9-transduced MSCs after CID (annexin V/7-AAD FACS); assay type: cell-based, human
Experimental: Undifferentiated MSCs. The chemical inducer of dimerization (CID) (AP20187; ARIAD Pharmaceuticals, Cambridge, Mass.) was added at 50 nM to iCasp9-transduced MSCs cultures in complete medium. Apoptosis was evaluated 24 hours later by FACS analysis, after cell harvest and staining with annexin V-PE and 7-AAD in annexin V binding buffer (BD Biosciences, San Diego, Calif.). Control iCasp9-transduced MSCs were maintained in culture without exposure to CID.

[6] = test system: differentiated iCasp9-positive MSCs; assay: Apoptosis of differentiated iCasp9-transduced MSCs after CID (TUNEL, cell density); assay type: cell-based, human; details: adipocytic differentiation, 50 nM CID, after 24 hours (from 584)
Experimental: Differentiated MSCs. Transduced MSCs were differentiated as presented above. At the end of the differentiation period, CID was added to the differentiation media at 50 nM. Cells were stained appropriately for the tissue being studied, as presented above, and a contrast stain (methylene azur or methylene blue) was used to evaluate the nuclear and cytoplasmic morphology. In parallel, tissues were processed for terminal deoxynucleotidyl-transferase dUTP nick end labeling (TUNEL) assay as per manufacturer instructions (In Situ Cell Death Detection Kit, Roche Diagnostics, Mannheim, Germany). For each time point, four random fields were photographed at a final magnification of 40× and the images were analyzed with ImageJ software version 1.43o (NIH, Bethesda, Md.). Cell density was calculated as the number of nuclei (DAPI positivity) per unit of surface area (in mm^2). The percentage of apoptotic cells was determined as the ratio of the number of nuclei with positive TUNEL signal (FITC positivity) to the total number of nuclei. Controls were maintained in culture without CID.

[7] = test system: Primary T cells from healthy donors
[8] = 10 nM, 24 hours, day after CD19 selection

CC[C@H](C(=O)N1CCCC[C@H]1C(=O)O[C@H](CCc1ccc(OC)c(OC)c1)c1cccc(OCC(=O)NCC(CNC(=O)COc2cccc([C@@H](CCc3ccc(OC)c(OC)c3)OC(=O)[C@@H]3CCCCN3C(=O)[C@@H](CC)c3cc(OC)c(OC)c(OC)c3)c2)CN(C)C)c1)c1cc(OC)c(OC)c(OC)c1 [AP20187]
CID concentration sufficient to obtain the maximal deletion effect ([1]; F-Casp9M.I.GFPhigh, day 7): 1 nM
reduction in mean fluorescence intensity of GFP in surviving CTLs ([1]; after CID): 70%
GFP+ cells eliminated ([1]; unselected CTLs, single 10-nM dose of CID, 5 donors): 91.3%
reduction in the number of human CD3+/GFP+ T cells in tumors ([2]; listed as CID): > 99%
reduction in the number of human CD3+/GFP+ T cells in tumors ([2]; listed as dimerizer): more than 99%
Killing efficiency after correction for baseline viability [3, 8]: about 92.9%±3.8%
viable cells after AP20187 [3, 8]: about 5.5%±2.5%
killing efficiency ([3]; OKT3/aCD28-reactivated cells, day 24 or 25): ~84.6%±8.0%
effect on virus-specific T cells (pentamer analysis) ([3]; allostimulated cells, 10 nM AP20187): spares (and thereby enriches) viral reactive subpopulations
killing efficiency ([3]; day 5 post transduction): 93.1±3.5%
residual viability ([3]; day 24 post transduction, 10 nM AP20187): 19.6±5.6%
killing efficiency ([3]; day 24 post transduction, non-reactivated): 63.1±6.2% and ~63.1%±6.2%
percentage killing ([3]; large scale (n=3)): about 95.4%
mean viability with AP20187 ([3]; large scale CD19 selection (n=3)): about 3.9%
viability of non-transduced cells with AP20187 ([3]; non-transduced cells (n=6)): about 86%±9%
Killing ([3]; reactivated, CD25 negative fraction): 78.6±9.1%
percentage killing ([3]; small scale (n=5)): about 91.4%
mean viability with AP20187 ([3]; small scale CD19 selection (n=5)): about 6.6%
apoptosis / elimination of iCasp9-modified T cells after dimerizer ([3]; summary statement, listed as small-molecule dimerizer): > 90%
proportion of surviving iCasp9-positive cells ([4]; mouse, in vivo): 0.7%
killing / depletion of iCasp9-positive MSCs in vivo ([4]; two injections of 50 μg of CID 24 hours apart): > 99%
apoptotic (annexin-V+/7-AAD−) phenotype [5]: 64%
necrotic (annexinV+/7-AAD+) phenotype ([5]; listed as CID): 30% and 32%
annexin positive non-transduced control MSC (Control/CID) (iCasp9-transduced MSCs; CID 50 nM, 24 hours): 15%
apoptosis index of iCasp9-negative cells (iCasp9-transduced MSCs; CID 50 nM, 24 hrs, listed as CID): 20±7% and 19%
apoptotic death of iCasp9-positive cells (iCasp9-transduced MSCs; CID 50 nM, within 24 hrs): 93±1%
apoptotic cells among magnetically immunoselected iCasp9-CD19-positive cells (iCasp9-transduced MSCs; after exposure to CID): More than 95%
cell density [6]: < 14 cells/mm2

B1: N405Qco: codon-optimized version of the modified caspase-9 polypeptide having the N405Q substitution, SEQ ID NO: 39/40 (protein)
chain: VDGFGDVGALESLRGNADLAYILSMEPCGHCLIINNVNFCRESGLRTRTGSNIDCEKLRRRFSSLHFMVEVKGDLTAKKMVLALLELARQDHGALDCCVVVILSHGCQASHLQFPGAVYGTDGCPVSVEKIVNIFNGTSCPSLGGKPKLFFIQACGGEQKDHGFEVASTSPEDESPGSNPEPDATPFQEGLRTFDQLDAISSLPTPSDIFVSYSTFPGFVSWRDPKSGSWYVETLDDIFEQWAHSEDLQSLLLRVANAVSVKGIYKQMPGCFQFLRKKLFFKTSASRA
AP1903-dependent cytotoxicity / sensitivity in transduced T cells [7]: very subtle effect on inducible caspase function
